Assays:
[1] = tested on: electrically-stimulated left atria; test: Electrically-stimulated beating left atrium, organ bath; format: cell-based, guinea-pig; conditions: 0.1~30 μM, electrical stimulation 1 Hz
eNOS = eNOS expression in aorta and pulmonary artery rings, Western blotting; format: cell-based, rat; conditions: aorta and pulmonary artery (PA) ring
Description: ROCKII expression and vascular resistance. To determine whether KMUP-3's ROCKII activity increased vascular resistance, aorta and pulmonary artery (PA) ring protein was extracted followed by Western blotting to measure the expression ROCKII and eNOS.
Protein extraction and Western blotting analysis. Briefly, after incubation with test agents in an organ bath, isolated beating atrium was frozen and pulverized to a fine powder at the temperature of liquid nitrogen. Atrium powders were then homogenized in protein extraction reagent (Pierce Biotechnology, Inc., Rockford, Ill.) by sonication. The samples were sonicated 10 sec three times and centrifuged at 13,000 rpm at 4° C. for 30 min. The protein concentrations of supernatants were determined by using bovine serum albumin as the standard. The cell extracts were then boiled in a ratio of 4:1 with sample buffer (Tris 100 mM, pH 6.8; glycerol 20%, Sodium dodecyl sulfate (SDS) 4% and bromophenol blue 0.2%). Electrophoresis was performed using 10% SDS-PAGE and transferred to nitrocellulose membranes (Millipore Corp., Billerica, Mass.). […] The intensity of the bands was measured by densitometry. eNOS or phosphorylated eNOS were extracted from cell culture of neonatal myocytes, PA ring and aortic ring (2-3 mm) of rats and measured by Western blotting analysis.

## Cn1c(=O)c2c(ncn2CCN2CCN(c3ccc([N+](=O)[O-])cc3)CC2)n(C)c1=O [KMUP-3, 7-[2-[4-(4-nitrobenzene)piperazinyl]ethyl]-1,3-dimethylxanthine]
[1]
  Left atrium contractility: concentration-dependently increased
eNOS
  Vascular eNOS expression: did increase

From patent US20120321584A1, “PROCESSES FOR PREPARING AMINE SALTS OF KMUP-3 AND USE THEREOF” (KAOHSIUNG MEDICAL UNIVERSITY, priority 2011, published 2012)
